SMILES strings stand for the structures.

For series [1], the target named is Aminopeptidase N (Homo sapiens, UniProt P15144). Briefly: Inhibition of APN.
Series [2] in a line: Inhibition of trypsin.
Series [3] deals with HepG2. Briefly: Cytotoxicity against human HepG2 cells at 100 uM. It counts as cell-based. To be noted: hepg2, 100 µM.
Series [4] in a line: Metabolic stability in human liver microsomes assessed as compound remaining after 1 hr. In kind it is ADME, Microsome. To be noted: read-out: Stability.
The nature of series [5]: Metabolic stability in rat liver microsomes assessed as compound remaining after 1 hr. In kind it is ADME, Microsome. To be noted: read-out: Stability.
The target of series [6] is CYP2C9 (Homo sapiens, UniProt P11712). The series is described as follows: Inhibition of CYP2C9 at 10 uM. It counts as ADME.
CYP2C9, sequence (P11712 whole entry): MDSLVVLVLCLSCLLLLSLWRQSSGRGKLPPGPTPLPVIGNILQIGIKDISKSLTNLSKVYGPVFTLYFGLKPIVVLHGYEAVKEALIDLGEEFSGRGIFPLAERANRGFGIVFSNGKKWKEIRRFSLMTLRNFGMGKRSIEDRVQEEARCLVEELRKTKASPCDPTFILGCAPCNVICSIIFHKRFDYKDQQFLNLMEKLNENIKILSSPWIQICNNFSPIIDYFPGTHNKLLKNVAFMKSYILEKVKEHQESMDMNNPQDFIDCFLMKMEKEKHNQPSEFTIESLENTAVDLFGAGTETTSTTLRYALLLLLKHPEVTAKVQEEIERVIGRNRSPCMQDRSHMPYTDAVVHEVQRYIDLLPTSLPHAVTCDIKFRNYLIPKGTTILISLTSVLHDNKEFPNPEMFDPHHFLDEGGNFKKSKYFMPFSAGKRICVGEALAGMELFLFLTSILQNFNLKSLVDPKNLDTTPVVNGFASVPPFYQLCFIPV
Series [7] is described as follows: Chemical stability of the compound in buffer solution assessed as compound remaining at pH 1 to 9 after 24 hrs. It counts as physicochemical. To be noted: read-out: Stability.
The nature of series [8]: Inhibition of elastase.
The target in series [9] is T1, Prolyl endopeptidase (Rattus norvegicus, UniProt O70196).
T1 sequence (O70196 whole entry): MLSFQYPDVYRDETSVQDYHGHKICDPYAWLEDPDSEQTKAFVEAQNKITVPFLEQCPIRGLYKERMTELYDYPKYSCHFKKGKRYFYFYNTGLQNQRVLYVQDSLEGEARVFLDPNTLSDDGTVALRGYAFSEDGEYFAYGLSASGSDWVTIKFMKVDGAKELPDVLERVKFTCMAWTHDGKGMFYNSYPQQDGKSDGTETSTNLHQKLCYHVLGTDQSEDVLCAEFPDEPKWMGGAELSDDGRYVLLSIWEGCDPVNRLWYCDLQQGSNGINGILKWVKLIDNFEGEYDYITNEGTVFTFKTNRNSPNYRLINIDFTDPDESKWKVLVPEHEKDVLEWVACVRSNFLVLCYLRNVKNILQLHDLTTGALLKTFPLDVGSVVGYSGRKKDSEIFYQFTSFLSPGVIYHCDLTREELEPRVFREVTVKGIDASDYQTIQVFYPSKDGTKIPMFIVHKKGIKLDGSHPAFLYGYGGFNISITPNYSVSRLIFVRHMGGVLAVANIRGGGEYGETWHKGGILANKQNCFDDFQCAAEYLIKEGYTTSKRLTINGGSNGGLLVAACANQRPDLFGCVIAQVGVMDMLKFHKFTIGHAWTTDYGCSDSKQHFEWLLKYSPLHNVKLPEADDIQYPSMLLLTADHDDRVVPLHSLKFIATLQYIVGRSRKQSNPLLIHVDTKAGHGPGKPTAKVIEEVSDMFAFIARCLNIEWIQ
Briefly: Inhibition of POP in rat brain cortex. It counts as tissue-based.

The target in series [10] is T2, CYP1A2 (Homo sapiens, UniProt P05177).
T2 sequence (P05177 whole entry): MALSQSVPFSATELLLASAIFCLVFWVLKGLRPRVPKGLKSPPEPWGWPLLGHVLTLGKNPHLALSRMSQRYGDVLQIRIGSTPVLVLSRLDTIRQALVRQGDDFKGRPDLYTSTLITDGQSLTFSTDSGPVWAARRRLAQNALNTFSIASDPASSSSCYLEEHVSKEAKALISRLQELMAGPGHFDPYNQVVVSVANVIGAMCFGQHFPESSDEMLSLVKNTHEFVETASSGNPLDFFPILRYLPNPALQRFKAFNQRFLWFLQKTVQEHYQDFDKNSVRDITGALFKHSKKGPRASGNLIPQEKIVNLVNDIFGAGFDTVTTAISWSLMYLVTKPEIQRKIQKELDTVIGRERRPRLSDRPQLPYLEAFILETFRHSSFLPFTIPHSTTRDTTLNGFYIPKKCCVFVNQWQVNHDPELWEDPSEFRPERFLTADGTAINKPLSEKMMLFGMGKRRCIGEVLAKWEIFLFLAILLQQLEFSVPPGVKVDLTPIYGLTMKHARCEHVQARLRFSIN
Briefly: Inhibition of CYP1A2 at 10 uM. In kind it is ADME.

The target of series [11] is CYP2C19 (Homo sapiens, UniProt P33261). Briefly: Inhibition of CYP2C19 at 10 uM. In kind it is ADME.
CYP2C19, sequence (P33261 whole entry): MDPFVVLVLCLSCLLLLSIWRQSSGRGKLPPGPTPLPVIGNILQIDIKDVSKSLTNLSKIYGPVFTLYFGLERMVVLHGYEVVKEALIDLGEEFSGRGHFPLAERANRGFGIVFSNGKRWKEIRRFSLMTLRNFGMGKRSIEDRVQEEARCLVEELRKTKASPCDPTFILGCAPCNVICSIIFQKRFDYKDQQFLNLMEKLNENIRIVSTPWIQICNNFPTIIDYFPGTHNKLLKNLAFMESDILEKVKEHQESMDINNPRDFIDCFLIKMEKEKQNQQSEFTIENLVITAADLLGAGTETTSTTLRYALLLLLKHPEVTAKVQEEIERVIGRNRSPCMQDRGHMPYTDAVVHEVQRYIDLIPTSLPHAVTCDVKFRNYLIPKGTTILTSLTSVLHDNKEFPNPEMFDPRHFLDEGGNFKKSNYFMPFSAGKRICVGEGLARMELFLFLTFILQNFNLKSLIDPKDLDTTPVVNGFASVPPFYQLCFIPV
Series [12] has as its target CYP2D6 (Homo sapiens, UniProt P10635). Briefly: Inhibition of CYP2D6 at 10 uM. It counts as ADME.
Series [13] is described as follows: Cytotoxicity against human WI38 cells at 100 uM. In kind it is cell-based. Particulars: wi-38, 100 µM.
The target in series [14] is Voltage-gated inwardly rectifying potassium channel KCNH2 (Homo sapiens, UniProt Q12809). The series is described as follows: Binding affinity to human ERG.
Voltage-gated inwardly rectifying potassium channel KCNH2, sequence (Q12809 whole entry): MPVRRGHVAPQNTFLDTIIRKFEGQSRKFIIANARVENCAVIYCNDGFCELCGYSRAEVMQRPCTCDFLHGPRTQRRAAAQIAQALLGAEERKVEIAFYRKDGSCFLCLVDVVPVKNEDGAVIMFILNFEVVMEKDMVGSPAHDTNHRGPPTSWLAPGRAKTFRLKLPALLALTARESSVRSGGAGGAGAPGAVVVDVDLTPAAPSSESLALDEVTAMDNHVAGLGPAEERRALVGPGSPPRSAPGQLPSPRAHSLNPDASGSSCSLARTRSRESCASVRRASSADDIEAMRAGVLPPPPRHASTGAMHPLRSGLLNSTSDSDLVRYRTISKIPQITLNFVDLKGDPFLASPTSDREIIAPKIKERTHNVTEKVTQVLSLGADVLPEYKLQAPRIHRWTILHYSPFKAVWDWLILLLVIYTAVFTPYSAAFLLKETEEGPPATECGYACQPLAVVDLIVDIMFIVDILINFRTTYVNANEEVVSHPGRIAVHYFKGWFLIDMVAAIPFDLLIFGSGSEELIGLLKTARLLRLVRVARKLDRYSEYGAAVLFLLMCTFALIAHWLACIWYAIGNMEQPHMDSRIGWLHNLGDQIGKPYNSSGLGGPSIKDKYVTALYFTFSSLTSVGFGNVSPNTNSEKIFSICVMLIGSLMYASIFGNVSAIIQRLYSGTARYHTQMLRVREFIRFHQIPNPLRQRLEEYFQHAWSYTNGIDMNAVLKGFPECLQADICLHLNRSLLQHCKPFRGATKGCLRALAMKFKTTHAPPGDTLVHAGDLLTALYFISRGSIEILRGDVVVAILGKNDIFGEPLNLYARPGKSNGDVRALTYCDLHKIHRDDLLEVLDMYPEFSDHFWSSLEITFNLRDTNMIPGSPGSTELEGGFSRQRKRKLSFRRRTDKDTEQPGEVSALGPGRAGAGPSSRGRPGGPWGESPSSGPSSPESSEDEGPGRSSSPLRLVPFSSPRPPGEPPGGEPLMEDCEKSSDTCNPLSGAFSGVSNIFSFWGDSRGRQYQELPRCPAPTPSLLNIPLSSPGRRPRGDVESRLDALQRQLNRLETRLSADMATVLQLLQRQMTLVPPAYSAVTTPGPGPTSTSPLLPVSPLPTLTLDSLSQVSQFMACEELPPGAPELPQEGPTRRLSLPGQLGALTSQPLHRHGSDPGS
The target in series [15] is CYP3A4 (Homo sapiens, UniProt P08684). Briefly: Inhibition of CYP3A4 at 10 uM. It counts as ADME.
CYP3A4, sequence (P08684 whole entry): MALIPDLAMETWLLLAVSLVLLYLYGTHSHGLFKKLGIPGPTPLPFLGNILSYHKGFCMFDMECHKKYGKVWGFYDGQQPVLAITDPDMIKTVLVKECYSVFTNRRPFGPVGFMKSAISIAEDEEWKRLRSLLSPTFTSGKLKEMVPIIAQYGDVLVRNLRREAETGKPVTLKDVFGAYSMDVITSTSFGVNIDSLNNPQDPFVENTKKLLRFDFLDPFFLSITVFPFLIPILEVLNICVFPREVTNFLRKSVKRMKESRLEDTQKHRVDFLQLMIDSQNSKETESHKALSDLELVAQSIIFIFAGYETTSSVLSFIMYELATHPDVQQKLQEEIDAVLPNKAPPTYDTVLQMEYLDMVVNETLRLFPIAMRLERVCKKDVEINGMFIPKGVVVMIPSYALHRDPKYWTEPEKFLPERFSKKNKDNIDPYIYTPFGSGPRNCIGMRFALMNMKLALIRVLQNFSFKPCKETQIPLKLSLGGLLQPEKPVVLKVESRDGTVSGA
Series [16] has as its target Dipeptidyl peptidase 2 (Rattus norvegicus, UniProt Q9EPB1). Briefly: Inhibition of rat DPP2 expressed in african green monkey COS7 cells after 60 mins by fluorescence plate reader. In kind it is cell-based, COS-7.
Series [17] concerns Canis familiaris. The series is described as follows: Inhibition of DPP4 in Beagle dog plasma at 3 mg/kg, po after 24 hrs. In kind it is functional. To be noted: Canis lupus familiaris.
Series [18] has as its system Rattus norvegicus. Briefly: Inhibition of DPP4 in CD rat plasma at 10 mg/kg, po after 8 hrs. In kind it is functional.
In series [19] the test system is Canis familiaris. The series is described as follows: Inhibition of DPP4 in Beagle dog plasma at 3 mg/kg, po after 12 hrs. In kind it is functional. To be noted: Canis lupus familiaris.
For series [20], the system named is Canis familiaris. Briefly: Inhibition of DPP4 in Beagle dog plasma at 3 mg/kg, po after 1 hr. In kind it is functional. To be noted: Canis lupus familiaris.
Series [21] deals with Canis familiaris. Briefly: Inhibition of DPP4 in Beagle dog plasma at 3 mg/kg, po after 4 hrs. It counts as functional. To be noted: Canis lupus familiaris.
The subject of series [22] is Rattus norvegicus. The series is described as follows: Inhibition of DPP4 in CD rat plasma at 10 mg/kg, po after 12 hrs. It counts as functional.
For series [23], the system named is Rattus norvegicus. The series is described as follows: Inhibition of DPP4 in CD rat plasma at 10 mg/kg, po after 1 hr. In kind it is functional.

Aminopeptidase N, sequence (P15144 whole entry): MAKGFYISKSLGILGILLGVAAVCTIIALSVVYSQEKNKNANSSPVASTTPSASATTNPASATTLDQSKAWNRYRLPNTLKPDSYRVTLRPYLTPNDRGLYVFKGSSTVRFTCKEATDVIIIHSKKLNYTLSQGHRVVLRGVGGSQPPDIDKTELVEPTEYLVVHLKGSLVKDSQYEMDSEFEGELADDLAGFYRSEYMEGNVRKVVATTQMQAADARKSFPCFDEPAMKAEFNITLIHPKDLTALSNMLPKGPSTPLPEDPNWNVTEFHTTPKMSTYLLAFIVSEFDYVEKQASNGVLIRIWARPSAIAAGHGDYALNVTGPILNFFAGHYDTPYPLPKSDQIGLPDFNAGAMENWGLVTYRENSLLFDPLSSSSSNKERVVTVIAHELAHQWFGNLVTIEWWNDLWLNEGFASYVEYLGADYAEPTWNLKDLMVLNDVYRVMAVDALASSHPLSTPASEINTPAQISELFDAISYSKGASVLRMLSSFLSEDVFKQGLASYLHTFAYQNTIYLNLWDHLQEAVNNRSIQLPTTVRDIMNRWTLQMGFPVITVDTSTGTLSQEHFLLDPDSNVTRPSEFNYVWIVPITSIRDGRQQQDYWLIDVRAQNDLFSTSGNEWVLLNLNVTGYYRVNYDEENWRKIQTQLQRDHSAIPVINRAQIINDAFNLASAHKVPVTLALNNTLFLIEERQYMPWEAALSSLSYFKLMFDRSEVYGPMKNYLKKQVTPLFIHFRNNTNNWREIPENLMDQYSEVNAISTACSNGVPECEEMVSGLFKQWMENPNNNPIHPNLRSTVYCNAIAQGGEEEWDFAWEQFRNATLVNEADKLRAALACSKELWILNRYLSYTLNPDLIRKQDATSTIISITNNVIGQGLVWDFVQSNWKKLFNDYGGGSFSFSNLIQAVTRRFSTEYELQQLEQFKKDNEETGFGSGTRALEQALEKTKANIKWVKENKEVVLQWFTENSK
Dipeptidyl peptidase 2, sequence (Q9EPB1 whole entry): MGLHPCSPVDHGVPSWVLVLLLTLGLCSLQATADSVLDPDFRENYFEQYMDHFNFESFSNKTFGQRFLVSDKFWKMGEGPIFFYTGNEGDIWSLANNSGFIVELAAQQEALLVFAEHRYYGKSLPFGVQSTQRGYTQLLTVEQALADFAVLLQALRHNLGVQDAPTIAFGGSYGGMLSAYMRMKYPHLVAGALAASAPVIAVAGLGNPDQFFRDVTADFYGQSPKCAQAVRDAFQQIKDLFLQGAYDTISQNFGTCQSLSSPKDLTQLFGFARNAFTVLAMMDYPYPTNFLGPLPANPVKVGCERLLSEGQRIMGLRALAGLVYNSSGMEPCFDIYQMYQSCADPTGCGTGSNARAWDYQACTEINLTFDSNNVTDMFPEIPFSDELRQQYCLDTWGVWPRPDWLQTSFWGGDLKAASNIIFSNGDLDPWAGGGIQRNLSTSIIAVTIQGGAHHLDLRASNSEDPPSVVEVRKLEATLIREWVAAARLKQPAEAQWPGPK
CYP2D6, sequence (P10635 whole entry): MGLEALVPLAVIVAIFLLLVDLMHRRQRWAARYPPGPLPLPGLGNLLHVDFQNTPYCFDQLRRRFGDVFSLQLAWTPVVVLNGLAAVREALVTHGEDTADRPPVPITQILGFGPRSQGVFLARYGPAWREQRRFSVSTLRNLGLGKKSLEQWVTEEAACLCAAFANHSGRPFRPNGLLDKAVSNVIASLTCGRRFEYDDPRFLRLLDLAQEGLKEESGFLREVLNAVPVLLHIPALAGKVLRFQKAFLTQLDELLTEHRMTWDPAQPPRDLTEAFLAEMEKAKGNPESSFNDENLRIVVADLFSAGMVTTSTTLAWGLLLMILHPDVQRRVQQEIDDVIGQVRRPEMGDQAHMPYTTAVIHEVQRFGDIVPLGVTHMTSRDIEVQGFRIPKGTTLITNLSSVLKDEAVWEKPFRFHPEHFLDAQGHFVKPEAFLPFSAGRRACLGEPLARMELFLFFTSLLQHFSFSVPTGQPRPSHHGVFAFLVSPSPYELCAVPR

On to `CC(C)[C@@H](Nc1ccc(CNC(=O)[C@@H]2SCCN2C(=O)C[C@H](N)Cc2cc(F)c(F)cc2F)cc1)C(=O)O.Cl`, for which the concentration for half-maximal inhibition (IC50) in [1], in series [2], in [8], in series [9] and in series [16] was above 100 µM each time. In addition, the Activity result in series [3] and in [13] was “Non-toxic” in each case. Further, the remaining at 1 h in series [4] and in series [5] was above 90% throughout. The inhibition – broadly, the share of the control response that was lost under treatment – at 10 µM in series [6] is 26.8%; in [10] it was 2.9%; in series [11] it was 46.9%; in series [12], 12.2%; in [15], 3.5%. Moreover, the remaining at 24 h in series [7] was above 90%. Also, it took 408 µM to reach a half-maximal effect in [14] (EC50).

`CCOC(=O)[C@H](Nc1ccc(CNC(=O)[C@@H]2SCCN2C(=O)C[C@H](N)Cc2cc(F)c(F)cc2F)cc1)C(C)C`: the inhibition in vivo (as a rule, the drop in the measured response relative to a control, in per cent) at 3 mg/kg in [17] was found to be 44%; in series [19] it was 77%; in series [20] it was 94%; in [21], 93%. The figures for the inhibition in vivo at 10 mg/kg in series [18], in series [22] and in series [23] were 92%, 87% and 95%, respectively.

For the origin of these results see ChEMBL document CHEMBL1681678, “Discovery of β-aminoacyl containing thiazolidine derivatives as potent and selective dipeptidyl peptidase IV inhibitors” (Bioorg Med Chem Lett, 2011).
